Experimental data as given in paper PMC8745332, “Synthesis, Molecular Docking and Biological Characterization of Pyrazine Linked 2-Aminobenzamides as New Class I Selective Histone Deacetylase (HDAC) Inhibitors with Anti-Leukemic Activity” (International Journal of Molecular Sciences, 2021).

Columns and labels:
[1] = biological target: T1, human HDAC1 (Homo sapiens, UniProt Q13547); assay: In vitro HDAC1 inhibition assay, fluorogenic p53 peptide Ac-RHKK(Acetyl)-AMC; assay type: biochemical; conditions: for IC50: 10 nM HDAC1, 20 µM substrate, 90 min, 37 °C; for inhibition at 1 µM: read-out: HDAC1 % inhibition @ 1 µM; for inhibition at 2 µM: read-out: HDAC1 % inhibition @ 2 µM
T1 construct: purchased ENZO Life Sciences AG (Lausen, CH)
T1 sequence (Q13547 whole entry): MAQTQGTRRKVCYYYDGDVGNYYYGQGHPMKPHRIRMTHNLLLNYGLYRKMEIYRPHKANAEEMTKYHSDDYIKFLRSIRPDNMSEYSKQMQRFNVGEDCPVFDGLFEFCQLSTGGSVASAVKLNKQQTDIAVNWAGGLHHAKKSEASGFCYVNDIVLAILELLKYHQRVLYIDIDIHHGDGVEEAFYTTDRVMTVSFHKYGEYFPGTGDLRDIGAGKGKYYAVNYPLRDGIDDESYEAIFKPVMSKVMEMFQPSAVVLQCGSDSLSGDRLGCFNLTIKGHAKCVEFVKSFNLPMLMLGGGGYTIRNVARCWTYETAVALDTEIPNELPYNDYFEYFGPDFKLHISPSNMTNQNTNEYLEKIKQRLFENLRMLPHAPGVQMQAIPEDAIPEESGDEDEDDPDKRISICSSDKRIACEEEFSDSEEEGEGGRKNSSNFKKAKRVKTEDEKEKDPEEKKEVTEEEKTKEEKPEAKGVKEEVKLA
Method: (§1) Recombinant human HDAC1, HDAC2, and HDAC3/NCOR1 were purchased from ENZO Life Sciences AG (Lausen, CH). Recombinant human HDAC 4, HDAC5, HDAC7, HDAC9 and HDAC11 were produced by Barinka lab in Prague, as described before. Recombinant human HDAC8 was produced by Romier et al. (IGBMC, Univ. Strasbourg), as described in [55].
(§2) The in vitro testing on recombinant HDACs 1-3 were performed with a fluorogenic peptide derived from p53 (Ac-RHKK(Acetyl)-AMC). The measurements were performed in an assay buffer (50 mM Hepes, 150 mM NaCl, 5 mM MgCl2, 1 mM TCEP and 0.2 mg/mL BSA, pH 7.4 adjusted with NaOH) at 37 °C. Inhibitors at different concentrations were incubated with 10 nM HDAC1, 3 nM HDAC2 or 3 nM HDAC3 (final concentration) for at least 5 min. The reaction was started with the addition of the fluorogenic substrate (20 µM final concentration) and incubated for 30 min for HDAC2 and HDAC3 and 90 min for HDAC1. The reaction was stopped with a solution of 1 mg/mL trypsin and 20 µM SAHA in 1 mM HCl and incubated for 1 h at 37 °C. […] The received fluorescence intensities were normalized with uninhibited reaction as 100% and the reaction without enzyme as 0%. A nonlinear regression analysis was done to determine the IC50 value.

[2] = biological target: T2, human HDAC2 (Homo sapiens, UniProt Q92769); assay: In vitro HDAC2 inhibition assay, fluorogenic p53 peptide Ac-RHKK(Acetyl)-AMC; assay type: biochemical; conditions: for IC50: 3 nM HDAC2, 20 µM substrate, 30 min, 37 °C; for inhibition at 1 µM: read-out: HDAC2 % inhibition @ 1 µM; for inhibition at 2 µM: read-out: HDAC2 % inhibition @ 2 µM
T2 construct: purchased ENZO Life Sciences AG (Lausen, CH)
T2 sequence (Q92769 whole entry): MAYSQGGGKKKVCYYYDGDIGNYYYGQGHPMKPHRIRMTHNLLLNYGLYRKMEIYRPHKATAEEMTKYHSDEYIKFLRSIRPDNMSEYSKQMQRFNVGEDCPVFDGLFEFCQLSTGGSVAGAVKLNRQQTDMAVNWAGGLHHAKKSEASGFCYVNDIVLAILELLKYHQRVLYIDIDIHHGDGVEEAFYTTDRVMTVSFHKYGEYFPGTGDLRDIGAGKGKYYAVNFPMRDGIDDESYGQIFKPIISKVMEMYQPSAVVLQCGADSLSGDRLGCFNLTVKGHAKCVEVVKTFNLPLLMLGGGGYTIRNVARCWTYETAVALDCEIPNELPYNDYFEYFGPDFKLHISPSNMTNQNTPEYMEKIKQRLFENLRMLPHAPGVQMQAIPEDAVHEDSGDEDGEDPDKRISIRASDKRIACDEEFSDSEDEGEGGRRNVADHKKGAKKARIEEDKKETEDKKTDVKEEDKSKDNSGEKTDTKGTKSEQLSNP
Method: as §1, §2

[3] = biological target: T3, human HDAC3/NCOR1 (Homo sapiens, UniProt O15379); assay: In vitro HDAC3 inhibition assay, fluorogenic p53 peptide Ac-RHKK(Acetyl)-AMC; assay type: biochemical; conditions: for IC50: 3 nM HDAC3, 20 µM substrate, 30 min, 37 °C; for inhibition at 1 µM: read-out: HDAC3 % inhibition @ 1 µM; for inhibition at 2 µM: read-out: HDAC3 % inhibition @ 2 µM
T3 construct: purchased ENZO Life Sciences AG (Lausen, CH)
T3 sequence (O15379 whole entry): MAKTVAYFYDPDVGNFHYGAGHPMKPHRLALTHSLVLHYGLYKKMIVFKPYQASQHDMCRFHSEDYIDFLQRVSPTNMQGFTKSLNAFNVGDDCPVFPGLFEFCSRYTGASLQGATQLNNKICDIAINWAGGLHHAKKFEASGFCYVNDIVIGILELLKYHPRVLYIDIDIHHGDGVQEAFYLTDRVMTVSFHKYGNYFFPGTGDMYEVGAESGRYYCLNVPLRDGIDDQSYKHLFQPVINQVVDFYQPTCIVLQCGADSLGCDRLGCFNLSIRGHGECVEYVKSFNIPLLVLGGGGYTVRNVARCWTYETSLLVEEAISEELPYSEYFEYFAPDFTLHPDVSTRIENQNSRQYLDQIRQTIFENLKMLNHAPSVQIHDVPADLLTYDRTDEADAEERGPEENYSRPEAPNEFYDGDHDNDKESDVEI
T3 sequence (O75376 395-489 partner limits assumed): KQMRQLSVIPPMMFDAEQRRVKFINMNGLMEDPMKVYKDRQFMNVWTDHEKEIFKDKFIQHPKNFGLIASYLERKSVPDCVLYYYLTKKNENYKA
Method: as §1, §2

[4] = biological target: T4, human HDAC8 (Homo sapiens, UniProt Q9BY41); assay: HDAC8 homogenous fluorescence assay with ZMAL substrate; assay type: biochemical; conditions: read-out: HDAC8 (% Inhib.)
T4 construct: made in house
T4 sequence (Q9BY41 1-377): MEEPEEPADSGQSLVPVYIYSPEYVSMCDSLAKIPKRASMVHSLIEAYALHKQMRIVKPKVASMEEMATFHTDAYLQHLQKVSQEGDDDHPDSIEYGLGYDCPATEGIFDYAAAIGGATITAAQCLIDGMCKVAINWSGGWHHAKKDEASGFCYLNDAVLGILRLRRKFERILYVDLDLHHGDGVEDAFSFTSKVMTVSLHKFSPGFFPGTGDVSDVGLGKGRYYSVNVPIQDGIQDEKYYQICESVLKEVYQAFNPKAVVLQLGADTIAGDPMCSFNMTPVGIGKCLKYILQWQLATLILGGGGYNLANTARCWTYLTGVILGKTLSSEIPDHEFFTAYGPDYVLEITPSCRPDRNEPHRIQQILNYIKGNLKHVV
Method: as §1
Fluorescence intensity was measured at an excitation wavelength of 390 nm and an emission wavelength of 460 nm in a microtiter plate reader (BMG Polarstar).

[5] = in vitro; conditions: human, HEK293 cells
Method: The cells were incubated for 48 h with the HDACi at a concentration of 50 µM, and cell viability was determined by the Alamar Blue assay.
To determine the cytotoxicity of the developed compounds on the human epithelial kidney, cell line HEK293 was used. HEK293 cells (DSMZ Braunschweig, ACC305) were incubated at 37 °C in a humidified incubator with 5% CO2 in Dulbecco’s Modified Eagle Medium (DMEM) supplemented with 10% FCS and 5 mM glutamine. Cells were seeded out at 1.5 x 10^3 cells per well in a 96-well cell culture plate (TPP, Switzerland). The compounds to be tested were added immediately to the medium at 50 µM. After 24 h, Alamar Blue reagent (Invitrogen, CA) was added according to the manufacturer’s instructions and incubated again for 21 h before samples were analyzed. Detection of viable cells which convert the resazurine reagent into the highly fluorescent resorufin was performed by using a FLUOstarOPTIMA microplate reader (BMG Labtec) with the following filter set: Ex 530 nm/Em 590 nm. Measurements were performed in triplicate and data are means with standard deviation <12%.

| Structure (SMILES) | IC50 [1] [µM] | IC50 [2] [µM] | IC50 [3] [µM] | inhibition at 1 µM [4] [%] | inhibition at 1 µM [1] [%] | inhibition at 1 µM [2] [%] | inhibition at 1 µM [3] [%] | inhibition at 2 µM [1] [%] | inhibition at 2 µM [2] [%] | inhibition at 2 µM [3] [%] | viability at 48 h, 50 µM [5] [%] |
| --- | --- | --- | --- | --- | --- | --- | --- | --- | --- | --- | --- |
| Cn1cc(CN2CCN(c3ncc(C(=O)Nc4ccccc4N)cn3)CC2)c2ccccc21 [19j, N-(2-aminophenyl)-2-(4-((1-methyl-1H-indol-3-yl)methyl)piperazin-1-yl)pyrimidine-5-carboxamide] | 0.45 ± 0.06 | 0.93 ± 0.04 | 1.75 ± 0.06 | 0 |  |  |  |  |  |  | 62.5 |
| Cn1cc(CN2CCN(c3cnc(C(=O)Nc4ccccc4N)cn3)CC2)c2ccccc21 [19k, N-(2-aminophenyl)-5-(4-((1-methyl-1H-indol-3-yl)methyl)piperazin-1-yl)pyrazine-2-carboxamide] | 0.14 ± 0.02 | 0.56 ± 0.04 | 0.59 ± 0.03 | 0 |  |  |  |  |  |  | 71.4 |
| Nc1cc(F)c(F)cc1NC(=O)c1cnc(N2CCN(CCc3c[nH]c4ccccc34)CC2)cn1 [19h] | 0.81 ± 0.07 | 0.74 ± 0.03 | 0.57 ± 0.02 |  |  |  |  |  |  |  | 54.5 |
| CN1CCN(c2ncc(C(=O)Nc3ccccc3N)cn2)CC1 [19n, N-(2-aminophenyl)-2-(4-methylpiperazin-1-yl)pyrimidine-5-carboxamide] |  |  |  |  | 5 | 7 | 13 |  |  |  |  |
| Nc1ccccc1NC(=O)c1cnc(N2CCN(Cc3csc4ccccc34)CC2)cn1 [19e, N-(2-Aminophenyl)-5-(4-(benzo[b]thiophen-3-ylmethyl)piperazin-1-yl)pyrazine-2-carboxamide] | 0.21 ± 0.07 | 0.71 ± 0.04 | 0.84 ± 0.03 | 0 |  |  |  |  |  |  | 50.9 |
| Nc1ccccc1NC(=O)c1cnc(N2CCN(CCc3ccc(Cl)cc3)CC2)cn1 [19b, N-(2-Aminophenyl)-5-(4-(4-chlorophenethyl)piperazin-1-yl)pyrazine-2-carboxamide] |  |  |  | 3.4 |  |  |  | 25.8 | 30.3 | 65.2 | 78.6 |
| Nc1cc(Cl)ccc1NC(=O)c1cnc(N2CCN(CCc3c[nH]c4ccccc34)CC2)cn1 [19i, 5-(4-(2-(1H-indol-3-yl)ethyl)piperazin-1-yl)-N-(2-amino-4-chlorophenyl)pyrazine-2-carboxamide] | 3 ± 0.2 | 2.7 ± 0.2 | 1.9 ± 0.1 |  |  |  |  |  |  |  | 47.5 |
| Nc1ccccc1NC(=O)c1cnc(N2CCN(CCc3c[nH]c4ccccc34)CC2)cn1 [19g, 5-(4-(2-(1.H-indol-3-yl)ethyl)piperazin-1-yl)-N-(2-aminophenyl)pyrazine-2-carboxamide] | 0.31 ± 0.03 | 0.96 ± 0.05 | 0.49 ± 0.06 | 0 |  |  |  |  |  |  | 71.8 |
| Nc1ccccc1NC(=O)c1cnc(N2CCN(Cc3ccccn3)CC2)nc1 [19c, N-(2-aminophenyl)-2-(4-(pyridin-2-yl-methyl)piperazin-1-yl)pyrimidine-5-carboxamide] |  |  |  | 0 |  |  |  | 33.9 | 20.1 | 26.8 | 78.7 |
| Nc1ccccc1NC(=O)c1cnc(N2CCN(Cc3ccccn3)CC2)cn1 [19d, N-(2-Aminophenyl)-5-(4-(pyridin-2-ylmethyl)piperazin-1-yl)pyrazine-2-carboxamide] | 0.52 ± 0.07 | 1.43 ± 0.08 | 1.06 ± 0.04 | 0 |  |  |  |  |  |  | 67.7 |
| CN1CCN(c2cnc(C(=O)Nc3ccccc3N)cn2)CC1 [19o, N-(2-aminophenyl)-5-(4-methylpiperazin-1-yl)pyrazine-2-carboxamide] |  |  |  |  | 27 | 15 | 30 |  |  |  |  |
| Cn1cc(CCN2CCN(c3cnc(C(=O)Nc4ccc(F)cc4N)cn3)CC2)c2ccccc21 [19m, N-(2-Amino-4-fluorophenyl)-5-(4-(2-(1-methyl-1H-indol-3-yl)ethyl)piperazin-1-yl)pyrazine-2-carboxamide] | 0.4 ± 0.06 | 1.48 ± 0.19 | 0.4 ± 0.02 |  |  |  |  |  |  |  | 52.5 |
| Nc1ccc(-c2ccc(F)cc2)cc1NC(=O)c1cnc(N2CCN(CCc3c[nH]c4ccccc34)CC2)cn1 [21b, 5-(4-(2-(1H-indol-3-yl)ethyl)piperazin-1-yl)-N-(4-amino-4’-fluoro-[1,1’-biphenyl]-3-yl)pyrazine-2-carboxamide] | 0.7 ± 0.08 | 0.77 ± 0.06 |  | 0 |  |  | 0 |  |  |  | 71 |
| Cn1cc(CN2CCN(c3cnc(C(=O)Nc4cc(F)c(F)cc4N)cn3)CC2)c2ccccc21 [19l] | 0.29 ± 0.03 | 0.56 ± 0.02 | 0.81 ± 0.05 |  |  |  |  |  |  |  | 20.1 |

Second part, led by results:

| IC50 [1] [µM] | IC50 [2] [µM] | IC50 [3] [µM] | inhibition at 1 µM [4] [%] | inhibition at 1 µM [1] [%] | inhibition at 1 µM [2] [%] | inhibition at 1 µM [3] [%] | inhibition at 2 µM [1] [%] | inhibition at 2 µM [2] [%] | inhibition at 2 µM [3] [%] | Structure (SMILES) | viability at 48 h, 50 µM [5] [%] |
| --- | --- | --- | --- | --- | --- | --- | --- | --- | --- | --- | --- |
| 20 ± 1 | 14 ± 2 | 14 ± 1 |  |  |  |  |  |  |  | COc1ccc(NC(=O)c2cnc(N3CCNCC3)cn2)c(N)c1 [27c, N-(2-amino-4-methoxyphenyl)-5-(piperazin-1-yl)pyrazine-2-carboxamide] |  |
| 4.3 ± 0.3 | 4.2 ± 0.1 | 1.6 ± 0.1 |  |  |  |  |  |  |  | Nc1cc(F)c(F)cc1NC(=O)c1cnc(N2CCNCC2)cn1 [25b, N-(2-amino-4,5-difluorophenyl)-5-(piperazin-1-yl)pyrazine-2-carboxamide] | 83.7 |
| 0.18 ± 0.01 | 0.26 ± 0.07 | 12 ± 1 |  |  |  |  |  |  |  | CN1CCN(c2cnc(C(=O)Nc3cc(-c4ccccc4F)ccc3N)cn2)CC1 [29d, N-(4-amino-2’-fluoro-[1,1’-biphenyl]-3-yl)-5-(4-methylpiperazin-1-yl)pyrazine-2-carboxamide] | 54 |
|  |  |  |  | 0 | 0 | 0 |  |  |  | Nc1ccc(C(F)(F)F)cc1NC(=O)c1cnc(N2CCNCC2)cn1 [27a, N-(2-amino-5-(trifluoromethyl)phenyl)-5-(piperazin-1-yl)pyrazine-2-carboxamide] |  |
| 0.11 ± 0.01 | 0.18 ± 0.06 | 4.4 ± 0.1 |  |  |  |  |  |  |  | CN1CCN(c2cnc(C(=O)Nc3cc(-c4ccsc4)ccc3N)cn2)CC1 [29a, N-(2-amino-5-(thiophen-3-yl)phenyl)-5-(4-methylpiperazin-1-yl)pyrazine-2-carboxamide] | 65.8 |
|  |  |  |  | 0 | 0 | 0 |  |  |  | Cc1ccc(NC(=O)c2cnc(N3CCNCC3)cn2)c(N)c1 [27b, N-(2-amino-4-methylphenyl)-5-(piperazin-1-yl)pyrazine-2-carboxamide] |  |
| 0.27 ± 0.03 | 0.5 ± 0.03 | 0.5 ± 0.02 | 38 |  |  |  |  |  |  | Cn1cc(CN2CCN(c3cnc(C(=O)Nc4cc(F)ccc4N)cn3)CC2)c2ccccc21 [23b, 4-(5-((2-Amino-5-fluorophenyl)carbamoyl)pyrazin-2-yl)-1-((1-methyl-1H-indol-3-yl)methyl)piperazin-1-ium chloride] | 58.7 |
| 0.33 ± 0.02 | 1.37 ± 0.08 | 0.59 ± 0.04 |  |  |  |  |  |  |  | Cn1cc(CCN2CCN(c3cnc(C(=O)Nc4cc(F)ccc4N)cn3)CC2)c2ccccc21 [23c, N-(2-Amino-5-fluorophenyl)-5-(4-(2-(1-methyl-1H-indol-3-yl)ethyl)piperazin-1-yl)pyrazine-2-carboxamide] | 55.7 |
| 0.16 ± 0.03 | 0.34 ± 0.01 | 6.7 ± 0.5 |  |  |  |  |  |  |  | Nc1ccc(-c2ccc(F)cc2)cc1NC(=O)c1cnc(N2CCNCC2)cn1 [29c, N-(4-amino-4’-fluoro-[1,1’-biphenyl]-3-yl)-5-(piperazin-1-yl)pyrazine-2-carbox-amide] | 2.2 |
|  |  | 8.7 ± 0.4 |  | 0 | 0 |  |  |  |  | Nc1cc(Cl)ccc1NC(=O)c1cnc(N2CCNCC2)cn1 [25a, N-(2-amino-4-chlorophenyl)-5-(piperazin-1-yl)pyrazine-2-carboxamide] |  |
